Data reported in patent US5763438A, “2-acylaminopropanol compound and medical composition” (Seikagaku Corporation, priority 1994, dated 1998).
Like-named read-outs stand apart in the source and are kept apart here.

Tests used:
[1] = tested on: A/PR/8/34 strain influenza virus; assay: microbe, parasite or virus in culture; format: cell-based, influenza virus A/PR/8/34; conditions: for EC50: unidentified influenza virus, PR/8, MDCK, 72 h, read-out: ED50 (concentration at which the cytopathic effect derived from virus was reduced by 50% as compared with a control)
[2] = tested on: A/PR/8/34 strain influenza virus; assay: microbe, parasite or virus in culture; format: cell-based, influenza virus A/PR/8/34; conditions: for inhibition at 10 µM: unidentified influenza virus, PR/8, MDCK, 72 h, read-out: Virus growth inhibition (%)
[3] = Cytotoxicity to uninfected MDCK cells (MTT method); conditions: dog, mdck cells
Experimental: (§1) Further, in order to evaluate the cytotoxicities to the MDCK cells of the compounds of the present invention, these compounds at the same concentration were added to cells which were not infected with virus, and the survival rate after carrying out culture in the same manner was examined by the MTT method, which is also shown in Table 1.

MDCK cells = assay: Cytotoxicity to uninfected MDCK cells (MTT method); conditions: 10 μM; MDCK cells
Experimental: as §1

B16 melanoma cells = assay: Glycolipid biosynthesis-accelerating action in B16 melanoma cells (uptake of 14C-galactose into GSL fraction); format: cell-based; conditions: for Uptake of 14C-galactose into GSL fraction: 24 hours, control 6,100; for Acceleration of biosynthesis of glycolipids including ganglioside (in words): Table 2
Experimental: B16 melanoma cells derived from neuroectoderm were put into a culture plate with 12 wells in an amount of 2×10^5 cells/well and cultured for 24 hours in Dulbecco modified Eagle's media containing 10% bovine fetal serum. Thereafter, the media were exchanged with the same culture broths containing 2-acylaminopropanol compounds shown in Table 2, and ^14 C-galactose was added thereto. After 24 hours, the media were removed, the cells were washed with 1 ml of a phosphate buffer containing 0.02% EDTA, 1 ml of 0.25 % trypsin was added, and the mixtures were left to stand at 37° C. for 5 minutes. The cells were recovered by using the same culture broths and washed with a phosphate buffer, and then masses of the cells were obtained. 4 ml of methanol and chloroform were added successively to the masses of the cells to extract all GSL, followed by evaporation to dryness. Next, after this all GSL was suspended in 1 ml of water, the suspensions were dialyzed to water for 2 days to completely remove low molecules such as ^14 C-galactose, etc. The radioactivities of the GSL fractions thus obtained were measured by a liquid scintillation counter. A control is a result of carrying out an experiment in the same manner by exchanging the medium with the same amount of a culture broth not containing the compound of the present invention.

virus = conditions: Seikagaku vol. 65(8), p. 695 (1993); cited from earlier work
[4] = J. Lipid Res., Vol. 32, 713-722 (1991); cited from earlier work
[5] = 10 μM, MDCK cells, 3 days at 37° C., control 80.0
[6] = Mus musculus, B16, 24 h, 10 μM, control 100, read-out: Glycolipid biosynthesis acceleration (%)

| SMILES | Cytopathic effect (%) [1, 5] | EC50 [1] | inhibition at 10 µM [2] | viability at 72 h, 10 µM [3] | Uptake of 14C-galactose into GSL fraction (B16 melanoma cells; 10 μM) | activity at 10 µM (B16 melanoma cells; [6]) | Acceleration of biosynthesis of glycolipids including ganglioside (in words) (B16 melanoma cells) | other results |
| --- | --- | --- | --- | --- | --- | --- | --- | --- |
| CCCCCCCCCC(=O)NC(CN1CCCCC1CO)C(O)c1ccccc1 (mixture of isomers) [drawing 11 (Mixture of isomers), 2-decanoylamino-3-(2-(hydroxymethyl)-piperidino)-1-phenyl-1-propanol] | 3.1% | 1.5 µM | 99.7% | 80 to 100% | – | – | – | – |
| CCCCCCCCCC(=O)N[C@@H](CN1CCCCC1)[C@H](O)c1ccccc1 (relative stereo) [drawing 8 (DL-erythro), 2-decanoylamino-1-phenyl-3-piperidino-1-propanol] | 7.8% | – | 99.6% | 80 to 100% | – | – | – | – |
| CCCCCCCCCC(=O)N[C@H](CN1CCCCC1)[C@H](O)c1ccccc1 (relative stereo) [drawing 8 (DL-threo), 2-decanoylamino-1-phenyl-3-piperidino-1-propanol] | 40.0% | – | 93.9% | 80 to 100% | – | – | – | – |
| CCCCCCCCCC(=O)N[C@@H](CN1CCC(O)CC1)[C@H](O)c1ccccc1 (relative stereo) [drawing 9 (DL-erythro), 2-decanoylamino-3-(4-hydroxypiperidino)-1-phenyl-1-propanol] | – | 5 µM | 100% | 100% | – | – | – | Cytopathic effect (%) [1]: 0%; Suppression of growth of influenza virus (in words) [2]: completely suppressed growth of influenza virus; Cytotoxicity (in words) (MDCK cells): cytotoxicity at this concentration was not observed at all |
| CCCCCCCCCC(=O)N[C@H](CN1CCC(O)CC1)[C@H](O)c1ccccc1 (relative stereo) [drawing 9 (DL-threo), 2-decanoylamino-3-(4-hydroxypiperidino)-1-phenyl-1-propanol] | 14.2% | 5.4 µM | 87.3% | 100% | – | – | – | – |
| CCCCCCCCCC(=O)N[C@@H](CN(CC)CC)[C@H](O)c1ccccc1 (relative stereo) [drawing 10 (DL-erythro), 2-decanoylamino-3-diethylamino-1-phenyl-1-propanol] | 9.9% | 1.5 µM | 88.5% | 100% | – | – | – | – |
| CCCCCCCCCC(=O)N[C@@H](CN1CCN(C)CC1)[C@@H](O)c1ccccc1 [Compound 2] | – | – | – | – | 10,300 cpm/mg protein | 169% | significantly accelerate biosynthesis of glycolipids including ganglioside | – |
| CCCCCCCCCC(=O)N[C@@H](CN1CCC(O)C1)[C@@H](O)c1ccccc1 (some centres unmarked) [Compound 3] | – | – | – | – | 9,380 cpm/mg protein | 161% | significantly accelerate biosynthesis of glycolipids including ganglioside | – |
| CCCCCCCCCC(=O)N[C@@H](CNC1CCC(O)CC1)[C@@H](O)c1ccccc1 (some centres unmarked) [Compound 4] | – | – | – | – | – | – | significantly accelerate biosynthesis of glycolipids including ganglioside | Uptake of 14C-galactose into GSL fraction (B16 melanoma cells; 5 μM): 9,740 cpm/mg protein; activity at 5 µM (B16 melanoma cells; Mus musculus, B16, 24 h, 5 μM, control 100, read-out: Glycolipid biosynthesis acceleration (%)): 160% |
| CCCCCCCCCC(=O)N[C@H](CN1CCOCC1)[C@H](O)c1ccccc1 [D-threo-PDMP, reference compound] | – | – | 97.1% | 60 to 80% | – | – | – | Cytopathic effect (%) [1]: 44.8% |
| CCCCCCCCCC(=O)NC(CN1CCOCC1)C(O)c1ccccc1 (centres unmarked) [PDMP, 1-phenyl-2-decanoylamino-3-morpholino-1-propanol] | – | – | – | – | – | – | – | Antiviral activity (in words) (virus): has an antiviral activity; Passing a blood-brain barrier (in words) [4]: can pass a blood-brain barrier |
| CCCCCCCCCC(=O)N[C@@H](CN1CCC(O)CC1)[C@H](O)c1ccccc1 [drawing 13 (D-erythro)] | – | – | – | – | 11,470 cpm/mg protein | 188% | significantly accelerate biosynthesis of glycolipids including ganglioside | – |
| CCCCCCCCCC(=O)N[C@@H](CN1CCC(O)CC1)[C@@H](O)c1ccccc1 [drawing 13 (L-threo)] | – | – | – | – | 9,670 cpm/mg protein | 159% | significantly accelerate biosynthesis of glycolipids including ganglioside | – |
